Assays:
TALL-104 cells = assay: Cytokine profile of immune cell culture supernatant, TALL-104; assay type: cell-based, Human; settings: 1 μM, 48 hours
Protocol: (§1) Collection of cell culture supernatants used in cytokine measurements. Cells were plated at 3.5×10^4 cells in a 48-well plate (Thermo Fisher Scientific, Waltham, MA, USA) in complete medium and incubated at 37° C. with 5% CO2. At twenty-four hours after plating, almost all the tumor cells were adherent to the bottom of the flask and the complete medium was replaced with drug-containing medium. Subsequently, the culture supernatants were collected after forty-eight hours of incubation and were frozen at −80° C. until the measurement of cytokines was performed. The day of analysis, samples were thawed and centrifuged to remove cellular debris.
(§2) Human cytokine profiling. Human cell line culture supernatants were analyzed using an R&D systems Human Premixed Multi-Analyte Kit (R&D Systems, Inc., Minneapolis, MN, USA) and a Luminex 200 Instrument (LX200-XPON-RUO, Luminex Corporation, Austin, TX, USA) according to the manufacturer's instructions. […]
(§3) 9-ING-41 increases secreted cytotoxic proteins IFN-v, Granzyme B, and TRAIL in immune cells. […] Here, the inventors determined how 9-ING-41 treatment impacts the immune cell cytokinome. […]

ovarian cancer = settings: cited from earlier work
[1] = tested on: healthy donor-derived CD8+ T cells; assay: Cytokine profile of immune cell culture supernatant, donor-derived CD8+ T cells; assay type: cell-based, Human; settings: 1 μM, 48 hours
Protocol: Isolation of donor derived CD8+ T cells. An Easy Step Human CD8+ T Cell Isolation Kit was used to isolated CD8+ T cells from a donor PBMC sample via negative selection (Cat #, 17913, Stem Cell Technologies, Vancouver, Canada).
as §1, §2, §3

advanced malignancies = settings: cited from earlier work
[2] = tested on: HCT-116 colorectal cancer cells; assay: Co-culture of HCT-116 and NK-92 cells with or without αPD-1 therapy; assay type: cell-based, Human; settings: 9-ING-41+NK-92
Protocol: Immune cell co-culture experiments. Co-culture experiments were conducted with GFP+ SW480 or HCT-116 colorectal cancer cells and either NK-92 natural killer cells or TALL-104 T cells in a 48-well plate, in the presence or absence of 9-ING-41. HCT-116 cells were labeled using CellTracker™ Green CMFDA (5-chloromethylfluorescein diacetate), immune cells (NK-92, TALL-104) were labeled using CellTracker™ Blue CMAC Dye (7-amino-4-chloromethylcoumarin), and ethidium homodimer-1 (EthD-1) was used as a marker of cell death (Invitrogen, Thermo Fisher Scientific, Waltham, MA, USA).

TALL-104 = assay: Flow cytometric analysis of cell surface markers, TALL-104; assay type: cell-based, Human; settings: compared to DMSO treatment alone
Protocol: FIG. 12 is a set of bar graphs showing flow cytometric analyses of cell surface markers of tumor and immune cells treated with 9-ING-41 in vitro. FIG. 12(A) HCT-116, FIG. 12(B) HT-29, FIG. 12(C) TALL-104, and FIG. 12(D) NK-92 cells were treated with indicated concentrations of 9-ING-41 for forty-eight hours, stained for indicated cell surface marker expression, and analyzed with a BD LSRII. Statistical significance was determined using two-tailed unpaired T tests.
To further understand the differential 9-ING-41-mediated impacts on protein expression, the inventors treated tumor and immune cells in vitro with 9-ING-41, then performed a flow cytometric analysis for expression of cell surface markers. […] A similar trend occurred in HT-29 cells, although not statistically significant. […] FIG. 10(C). […] FIG. 10(D).

SMILES: Cn1cc(C2=C(c3coc4ccc(F)cc34)C(=O)NC2=O)c2cc3c(cc21)OCO3 [9-ING-41]
- IFN-γ, granzyme B, and TRAIL concentrations (TALL-104 cells): increases
- activity compared with lithium and other ATP-competitive inhibitors such as SB216763 (ovarian cancer): more active
- all three cytotoxic molecules (IFN-γ, granzyme B, TRAIL) [1]: increases
- clinical response (advanced malignancies; a patient with BRAF V600E metastatic melanoma, previously treated): complete response
- increased infection or opportunistic/unusual infections (advanced malignancies; even in patients with extensive prior cytotoxic therapy): no evidence of increased infection
- attributable Grade 3 or 4 serious adverse events (advanced malignancies; monotherapy and combination with standard chemotherapy, NCT03678883): without attributable Grade 3 or 4 serious adverse events
- myelosuppression (advanced malignancies; patients): not associated with myelosuppression of any degree
- safety profile (advanced malignancies; preliminary results from ongoing clinical trials): excellent safety profile devoid of myelosuppressive and immunosuppressive effects
- benefit over combination αPD-1 therapy+NK-92 only groups [2]: significant benefit
- TRAIL expression (TALL-104): significant decreased

From patent US20240009170A1, “INHIBITION OF GLYCOGEN SYNTHASE KINASE-3 (GSK-3)” (Brown University, priority 2020, published 2024)
